Experimental data: patent US7446079B2, “Perfumes for rinse-off systems” (Givaudan Fragrances Corporation, priority 2005, dated 2008)
Like-named read-outs stand apart in the source and are kept apart here.

What was measured:
[1] = GC-MS headspace release profile of Tropical Fruit perfume in shampoo, 1/100 dilution in water; assay type: physicochemical
Description: A 10 gram sample of formulation and fragrance was added to an empty 1000 ml pyrex beaker. This beaker was then filled with 1000 ml of 120 F tap water. Beaker with diluted shampoo sample was then immediately placed into a semi-enclosed plexiglass chamber.
Headspace Sampling: Once beaker was placed into chamber a Carboxan SPME field fiber was held at the top-side opening of the chamber over the beaker containing the sample. […] […] Top of plexiglass chamber was held open for entire 5 minutes of headspace sampling.

[2] = in water, cited from earlier work; for exp ODT (ppb) water: experimental values from the Booleans database

Compound: O=C1CCCCCCCCCCCC(=O)OCCO1 [ETHYLENE BRASSYLATE]
- GC Abundance ([1]; headspace at 50 seconds): 20

Compound: O=C1CCCCCCCCCCCCCCO1 [EXALTOLIDE TOTAL]
- GC Abundance ([1]; headspace at 50 seconds): 50

Compound: CCOC(=O)C1OC1(C)c1ccccc1 (centres unmarked) [Ethyl 2,3-epoxy-3-methyl-3-phenylpropionate]
- exp ODT (ppb) water [2]: 25 ppb

Compound: CCOC(=O)C(C)CC (centres unmarked) [Ethyl 2-methylbutyrate]
- GC Abundance ([1]; headspace at 10 seconds): 3000
- GC Abundance ([1]; headspace at 20 seconds): 3100
- GC Abundance ([1]; headspace at 30 seconds): 3100
- GC Abundance ([1]; headspace at 40 seconds): 2000
- GC Abundance ([1]; headspace at 50 seconds): 1500
- exp ODT (ppb) water [2]: 0.1-0.3 ppb

Compound: CC(C)c1cccc(C(C)CC=O)c1 (centres unmarked) [FLORHYDRAL]
- GC Abundance ([1]; headspace at 40 seconds): 9000
- GC Abundance ([1]; headspace at 50 seconds): 10000

Compound: CC(C)CC1CC(C)(O)CCO1 (centres unmarked) [FLOROL]
- GC Abundance ([1]; headspace at 40 seconds): 10000
- GC Abundance ([1]; headspace at 50 seconds): 15000

Compound: CCOC(=O)CC1(C)OCCO1 [FRUCTONE]
- GC Abundance ([1]; headspace at 20 seconds): 3000
- GC Abundance ([1]; headspace at 30 seconds): 5000
- GC Abundance ([1]; headspace at 40 seconds): 5000
- GC Abundance ([1]; headspace at 50 seconds): 5000
- ODT (ppb) ([2]; Table 9): less than 50 ppb
- ODT (ppb) ([2]; Table 11): less than 50 ppb
- ODT (ppb) ([2]; Table 13): less than 50 ppb

Compound: CCCCCCC1CCC(=O)O1 (centres unmarked) [GAMMA-DECALACTONE, 5-Hexyldihydro-2(3H)-furanone]
- GC Abundance ([1]; headspace at 40 seconds): 4000
- GC Abundance ([1]; headspace at 50 seconds): 7000
- ODT (ppb) ([2]; Table 9): less than 50 ppb
- ODT (ppb) ([2]; Table 11): less than 50 ppb
- ODT (ppb) ([2]; Table 13): less than 50 ppb

Compound: CCCCCC1C(=O)CCC1CC(=O)OC (centres unmarked) [HEDIONE]
- GC Abundance ([1]; headspace at 50 seconds): 4000
- ODT (ppb) ([2]; Table 9): less than 50 ppb
- ODT (ppb) ([2]; Table 11): less than 50 ppb
- ODT (ppb) ([2]; Table 13): less than 50 ppb

Compound: CC(C=O)Cc1ccc2c(c1)OCO2 (centres unmarked) [HELIONAL]
- GC Abundance ([1]; headspace at 40 seconds): 500
- GC Abundance ([1]; headspace at 50 seconds): 5000

Compound: CCCCCCOC(C)=O [HEXYL ACETATE]
- ODT (ppb) ([2]; Table 9): less than 50 ppb
- ODT (ppb) ([2]; Table 11): less than 50 ppb
- ODT (ppb) ([2]; Table 13): less than 50 ppb

Compound: C=C(C)C1CC=C(C)C(=O)C1 (centres unmarked) [I-1-Methyl-4-isopropenyl-6-cyclohexen-2-one]
- exp ODT (ppb) water [2]: 50 ppb

Compound: CC/C=C\CCOC(=O)OC [LIFFAROME]
- GC Abundance ([1]; headspace at 20 seconds): 3000
- GC Abundance ([1]; headspace at 30 seconds): 3000
- GC Abundance ([1]; headspace at 40 seconds): 3000
- GC Abundance ([1]; headspace at 50 seconds): 3000

Compound: CC(C=O)Cc1ccc(C(C)(C)C)cc1 (centres unmarked) [LILIAL]
- ODT (ppb) ([2]; Table 9): less than 50 ppb
- ODT (ppb) ([2]; Table 11): less than 50 ppb
- ODT (ppb) ([2]; Table 13): less than 50 ppb

Compound: CC(C)(O)CCCC1=CCC(C=O)CC1 (centres unmarked) [LYRAL]
- ODT (ppb) ([2]; Table 13): less than 50 ppb

Compound: CC1OC(C)C2Cc3ccccc3C2O1 (centres unmarked) [MAGNOLAN/CORPS 719]
- GC Abundance ([1]; headspace at 40 seconds): 1000
- GC Abundance ([1]; headspace at 50 seconds): 3000

Compound: COC(=O)c1c(C)cc(O)c(C)c1O [METHYL ATRATATE]
- GC Abundance ([1]; headspace at 50 seconds): 50

Compound: CC(=O)OC/C=C(/C)CCC=C(C)C [NERYL ACETATE]
- ODT (ppb) ([2]; Table 9): less than 50 ppb
- ODT (ppb) ([2]; Table 11): less than 50 ppb
- ODT (ppb) ([2]; Table 13): less than 50 ppb

Compound: CC(C)C(=O)OCCOc1ccccc1 [PHENOXY ETHYL ISOBUTYRATE]
- ODT (ppb) ([2]; Table 9): less than 50 ppb
- ODT (ppb) ([2]; Table 11): less than 50 ppb
- ODT (ppb) ([2]; Table 13): less than 50 ppb

Compound: CCCCCOC(C)=O [Pentyl Acetate]
- exp ODT (ppb) water [2]: 43 ppb

Compound: CCCCCOC(=O)CCC [Pentyl butyrate]
- exp ODT (ppb) water [2]: 44-87 ppb

Compound: CC1=CCC(CCC(C)C(C)O)C1(C)C (centres unmarked) [SANDALORE]
- GC Abundance ([1]; headspace at 50 seconds): 2000

Compound: CC(=O)OC(C)(C)C1CC=C(C)CC1 (centres unmarked) [TERPINYL ACETATE]
- GC Abundance ([1]; headspace at 30 seconds): 1000
- GC Abundance ([1]; headspace at 40 seconds): 9000
- GC Abundance ([1]; headspace at 50 seconds): 9000

Compound: CCC=C(C)C(O)CCCCC (centres unmarked) [UNDECAVERTOL, 4-Methyl-3-decen-5-ol]
- GC Abundance ([1]; headspace at 40 seconds): 10000
- GC Abundance ([1]; headspace at 50 seconds): 10000

Compound: CC(=O)OC1CCC(C(C)(C)C)CC1 (centres unmarked) [VERTENEX HC]
- GC Abundance ([1]; headspace at 30 seconds): 2000
- GC Abundance ([1]; headspace at 40 seconds): 8000
- GC Abundance ([1]; headspace at 50 seconds): 10000

Compound: CC(=O)C=CC1C(C)=CCCC1(C)C (stereo not drawn) [alpha ionone, 4-(2,2,6-Trimethyl-2-cyclohexen-1-yl)-3-buten-2-one]
- exp ODT (ppb) water [2]: 0.4-10 ppb

Compound: C=C(C)[C@H]1CC=C(C)CC1 [d-LIMONENE, d-1-Methyl-4-isopropenyl-1-cyclohexene]
- GC Abundance ([1]; headspace at 5 seconds, Tropical Fruit perfume 1% in shampoo): 7000
- GC Abundance ([1]; headspace at 10 seconds): 7000
- GC Abundance ([1]; headspace at 20 seconds): 7000
- GC Abundance ([1]; headspace at 30 seconds): 7000
- GC Abundance ([1]; headspace at 40 seconds): 5000
- GC Abundance ([1]; headspace at 50 seconds): 4000

Compound: CC(C)=CCCC(C)C=O (centres unmarked) [melonal, 2,6-Dimethyl-5-heptenal]
- exp ODT (ppb) water [2]: 16 ppb

Compound: CCC(=O)OC/C=C(\C)CCC=C(C)C [trans-3,7-Dimethyl-2,6-octadien-1-yl propanoate]
- exp ODT (ppb) water [2]: 10 ppb

Compound: OXANONE CRYSTALS
- GC Abundance ([1]; headspace at 50 seconds): 70

Compound: VERTOFIX COEUR
- GC Abundance ([1]; headspace at 50 seconds): 50
